According to patent US12312599B2, “Methods, compositions, and kits for producing beige adipocytes and treating metabolic disorders” (MaineHealth, priority 2018, dated 2025):

Assay: Activity of Y-27632 stock solutions
Assay type: physicochemical
Details: water based versus DMSO stock
Procedure: Note: Only use Y-27632 stock solutions that have been resuspended in DMSO. […] Conduct Mesoderm induction of iPSC in a laminar flow cabinet. • 3. Expand cells in NutriStem hPSC XF Medium overnight and change 100% of the medium without Y-27632 every 24 hours in a laminar flow cabinet for cell culture. When changing media, tilt plate up and allow media to pool at the bottom of wells. Aspirate the pooled medium without touching the surface of the plate. Replace with medium warmed to room temperature by pipetting 2 ml down the side of the wells. Cell Passaging • 1. Expand cell colonies until they have reached 70-80% confluence in high-density areas of the wells. High-density accumulation can occur along the edges of the well as well as the middle. Cells permitted to reach high density will lose their potential for differentiation after multiple passages. • 2. Prior to cell passage, warm cell wash buffer and NutriStem hPSC XF Medium to room temperature. Conduct cell passage in a laminar flow cabinet. • 3. Aspirate NutriStem hPSC XF Medium from wells with vacuum aspirator and wash with PBS without calcium or magnesium. Remove PBS and add 1 ml of ReLeSR reagent to side of well. Agitate plate to allow ReLeSR reagent to spread evenly on the surface. • 4. Aspirate ReLeSR reagent with vacuum aspirator after 30 seconds, which will leave behind a thin film of liquid. […]

inhibitor activity of water based stock solutions: lose significant inhibitor activity
Compound: C[C@@H](N)[C@H]1CC[C@H](C(=O)Nc2ccncc2)CC1 [Y-27632]
